The nature of data set [1]: Leaching characteristics from feed pellets under water. It counts as physicochemical. The settings on record: for dissolved out of feed pellets under water: 20.0 g pellets in 200 g water, 20° C.; for leaching compared with DL-methionine, MHA and calcium-MHA: compound feed pellets under water, identical conditions. The text has this:
The feed matrix used was a methionine-deficient feed mixture of conventional ingredients such as, for example, soybean meal, soybean oil, cornstarch, wheat meal, fish meal, cellulose, crystalline essential amino acids and minerals and vitamins as premixes. This mixture was then supplemented batchwise in 20 kg batches in each case with the methionine derivatives stated in table 5, with a 0.25% supplementation rate (based on sulfur equivalents), and was homogenized and then pelleted with steam treatment. As comparison with methionylmethionine (I), a pelleting experiment was carried out in each case with DL-methionine, MHA (methionine hydroxy analog) and calcium MHA. In addition, a control experiment was carried out by pelleting without addition of a methionine derivative (see table 5). The leaching characteristics of the diastereomers of methionylmethionine (I) from the feed pellets was then investigated under water. In this case, the dissolving out of methionylmethionine under water as a function of time, temperature, water composition (salt or fresh water) was determined. […] All the Erlenmeyer flask was subsequently agitated continuously with a laboratory shaker at a constant temperature of 20° C. Then, at defined time intervals, a sample of water was removed in each case and the content of the individual pairs of methionylmethionine diastereomers in the water was determined by HPLC (see table 7). For comparison, in each case the feed pellets supplemented with DL-methionine, MHA or calcium MHA were investigated under the same conditions and thus their leaching characteristics under water determined under the respective conditions (see FIG. 5 and table 7).

In data set [2] the test system is Litopenaeus vannamei. To be noted: feeding experiments; cited from earlier work.
A short description of data set [3]: Stability during pelleting and steam treatment of the feed mixture. In kind it is physicochemical. The settings on record: mixtures with natural protein and carbohydrate sources. The text has this:
The feed matrix used was a methionine-deficient feed mixture of conventional ingredients such as, for example, soybean meal, soybean oil, cornstarch, wheat meal, fish meal, cellulose, crystalline essential amino acids and minerals and vitamins as premixes. This mixture was then supplemented batchwise in 20 kg batches in each case with the methionine derivatives stated in table 5, with a 0.25% supplementation rate (based on sulfur equivalents), and was homogenized and then pelleted with steam treatment. As comparison with methionylmethionine (I), a pelleting experiment was carried out in each case with DL-methionine, MHA (methionine hydroxy analog) and calcium MHA. In addition, a control experiment was carried out by pelleting without addition of a methionine derivative (see table 5). In this case, the amino acid determination was based on EU method 98/64/EC. After extraction of the free amino acids and methionylmethionine (I), these were subsequently determined with the aid of an amino acid analyzer by post-column derivatization with ninhydrin (see table 6).

The subject of data set [4] is chickens. The settings on record: cited from earlier work.
For data set [5], the system named is enzyme cocktail of digestive and liver enzymes from carp.
Method: The method for isolating the digestive enzymes was based on that of EID and MATTY (Aquaculture 1989, 79, 111-119). […] To isolate liver enzymes, the livers were isolated, homogenized and treated in analogy to the processing of the intestinal enzymes in example 22. The procedure for enzyme isolation from the pancreas was also analogous thereto.
D-Methionine was taken up in buffer solution, and the enzyme solution was added. A blank without enzyme solution was made up in each case as comparison and for estimating the purely chemical transformation rate. After 24 hours, a sample was taken and the composition was detected and quantified with the aid of calibrated HPLC.

A value given as a limit tells only on which side of the number the result lay.

Consider `CSCCC(N)C(=O)O` (racemic) [Methionine, DL-methionine], for which the “dissolved out of feed pellets under water” value (shortened to “dissolved out … under water”) is 4.0% in data set [1] (Time 0); 12.0% in data set [1] (Time 5); 16.0% in data set [1] (Time 10); 24.0% in data set [1] (Time 15); 39.9% in data set [1] (Time 30); 59.9% in data set [1] (Time 60). Moreover, the “dissolved out … under water” value in data set [1] (Time 120) is recorded as 79.8%; in data set [1] (Time 210), 87.8%. Further, the “activity as feed additive compared with L-methionine” value in data set [2] is reported as “same activity as L-methionine”.

Regarding `CSCCC(N)C(=O)NC(CCSC)C(=O)O` (stereo not drawn) [DL/LD-I, DL/LD-methionylmethionine], the “dissolved out … under water” value is 0.6% in data set [1] (Time 0); 0.7% in data set [1] (Time 5); 0.9% in data set [1] (Time 10); 0.6% in data set [1] (Time 15); 0.6% in data set [1] (Time 30); 1.7% in data set [1] (Time 60). The “dissolved out … under water” value turned out to be 1.7% in data set [1] (Time 120) and 3.8% in data set [1] (Time 210). The “maximum dissolved out of the feed pellets” value in data set [1] (after a residence time of 200 min) is at most 5%. For the same compound, in data set [1], the “leaching compared with DL-methionine, MHA and calcium-MHA” value is listed as “distinctly less leaching”.

Regarding `CSCCC(N)C(=O)NC(CCSC)C(=O)O` (stereo not shown) [LL/DD-I, DD/LL-methionylmethionine], the “dissolved out … under water” value in data set [1] (Time 0) is given as 2.7%; in data set [1] (Time 5) it was 3.7%; in data set [1] (Time 10), 6.5%; in data set [1] (Time 15), 7.7%; in data set [1] (Time 30), 12.1%; in data set [1] (Time 60), 20.6%. Further, the “dissolved out … under water” value in data set [1] (Time 120) came to 27.4%; in data set [1] (Time 210), 35.9%. In addition, the “leaching compared with DL-methionine, MHA and calcium-MHA” value in data set [1] is “distinctly less leaching”.

Regarding `CSCCC(N)C(=O)NC(CCSC)C(=O)O` (mixture of isomers) [LL/DD/LD/DL-I, DL-methionyl-DL-methionine], the “dissolved out … under water” value in data set [1] (Time 0) is recorded as 1.5%; in data set [1] (Time 5) it was 2.0%; in data set [1] (Time 10), 3.2%; in data set [1] (Time 15), 3.6%; in data set [1] (Time 30), 5.4%; in data set [1] (Time 60), 9.5%. For the same compound, the “dissolved out … under water” value in data set [1] (Time 120) was 12.3%; in data set [1] (Time 210) it was 17.0%. Besides, in data set [1], the “leaching compared with DL-methionine, MHA and calcium-MHA” value was “distinctly less leaching”. The “stability during pelleting, extrusion and steam treatment” value in data set [3] is given as “stable”; in data set [3] (listed as DL-methionyl-DL-methionine (I)), “absolutely stable”; in data set [3] (listed as methionylmethionine (I)) it was “remained stable”.

Consider `CSCCC(O)C(=O)[O-].CSCCC(O)C(=O)[O-].[Ca+2]` (stereo not shown) [MHA-Ca, reference compound], for which the “dissolved out … under water” value in data set [1] (Time 0) amounted to 8.6%; in data set [1] (Time 5) it was 16.5%; in data set [1] (Time 10), 28.2%; in data set [1] (Time 15) it was 39.4%; in data set [1] (Time 30), 61.7%; in data set [1] (Time 60), 82.4%. Besides, the “dissolved out … under water” value in data set [1] (Time 120) turned out to be 94.1%; in data set [1] (Time 210), 97.0%.

Take poly-L-methionine: the biological value result in data set [4] is “lack of biological value”.

With `CSCCC(O)C(=O)O` (racemic) [MHA, rac-2-hydroxy-4-(methylthio)butanoic acid, reference compound], the “dissolved out … under water” value in data set [1] (Time 0) is listed as 6.0%; in data set [1] (Time 5), 12.8%; in data set [1] (Time 10), 20.8%; in data set [1] (Time 15) it was 28.8%; in data set [1] (Time 30) it was 50.5%; in data set [1] (Time 60), 75.4%. Moreover, the “dissolved out … under water” value in data set [1] (Time 120) was determined as 94.1%; in data set [1] (Time 210) it was 99.9%.

For the compound `CSCC[C@@H](N)C(=O)O` [D-methionine], the “biotransformation of D-methionine to L-methionine” value in data set [5] is listed as “may be transformed into L-methionine”.
